SMILES strings stand for the structures.

The results in this text go back to the SangsterLogP compilation.

Assay in the first series: not given
Settings: not given
The logP is the decadic logarithm of the partition coefficient of the neutral form, usually between octanol and water. Take `CCCCCCCCCCCCCCCC(=O)OCC(COC(=O)C(C)c1ccc2cc(OC)ccc2c1)OC(=O)CCCCCCCCCCCCCCC` (configuration not stated): the logP is 6.28.

The molecule `CCCCCCCC/C=C\CCCCCCCC(=O)OCC(COC(=O)C(C)c1ccc2cc(OC)ccc2c1)OC(=O)CCCCCCC/C=C\CCCCCCCC` (configuration not stated) returned a logP of 6.39.

`CCCC(=O)OCC(COC(=O)C(C)c1ccc2cc(OC)ccc2c1)OC(=O)CCC` (configuration not stated): the logP stood at 4.84.

Consider `CCCCCCCCCCCC(=O)OCC(COC(=O)C(C)c1ccc2cc(OC)ccc2c1)OC(=O)CCCCCCCCCCC` (configuration not stated), for which the logP was 6.08.

Molecule `CCCCCC(=O)OCC(CCOC(=O)c1ccc2cc(OC)ccc2c1)OC(=O)CCCCC` (configuration not stated) returned a logP of 5.68.

Assay in another series: not given
Settings: not given
This is another data set of the same source.
`c1ccc2cc3cc4c(ccc5ccccc54)cc3cc2c1` came in with a logP of 6.81.

For `CCc1ccc2cc3ccccc3cc2c1`, the logP was 5.85.

`Cc1ccc2c(ccc3ccccc32)c1` came in with a logP of 5.24.

With `Cc1cccc2c1ccc1ccccc12`, the logP came out at 5.08. The logP values of the last two molecules are within 0.2 log units of each other.

Take `c1ccc2cc3cc4ccccc4cc3cc2c1`: the logP was 5.76.

The nature of the next series: method code SF-AS, from PMID: 10944786. The conditions noted are these: pH 7.0.
As usually defined, the logD is lipophilicity at a set pH, counting ionised and neutral species. Lower therefore signals lower lipophilicity. `CCCCOc1ccc(NC(=O)OCN2CCCCC2)cc1` registered a logD of 3.04.

With `CCCOc1cccc(NC(=O)OCN2CCCCC2)c1`, the pH-dependent lipophilicity (logD) was found to be 2.6.

For the molecule `CCCOc1ccccc1NC(=O)OCN1CCCCC1`, the logD is 2.33.

Molecule `CCCOc1ccc(NC(=O)OCN2CCCCC2)cc1` registered a logD of 2.42.

`CCCCOc1ccccc1NC(=O)OCN1CCCCC1` returned a logD of 2.39.

Assay in another series: not given
Settings: not given
The source holds these as a separate data set.
`COc1ccc2c(c1)N(CC(C)CN(C)C)c1ccccc1S2` (configuration not stated) displayed a logP of 4.4.

`OCCN1CCN(CCCN2c3ccccc3Sc3ccc(Cl)cc32)CC1` registered a logP of 4.25.

`CN1CCN(CCCN2c3ccccc3Sc3ccc(Cl)cc32)CC1` returned a logP of 4.79.

`CC(NCCC(c1ccccc1)c1ccccc1)c1ccccc1` (configuration not stated) gave a logP of 4.89. The logP values of the last two molecules are within 0.2 log units of each other.

`CCSc1ccc2c(c1)N(CCCN1CCN(C)CC1)c1ccccc1S2` had a logP of 4.82.

The next series in a line: method code SF-HPLC, from PMID: 9554875. The conditions noted are these: pH 6.8.
Turning to `Cc1cn(C2C=CC(COP3(=O)OCc4ccccc4O3)O2)c(=O)[nH]c1=O` (configuration not stated), the logD worked out at 0.28.

Consider `COc1ccc2c(c1)COP(=O)(OCC1C=CC(n3cc(C)c(=O)[nH]c3=O)O1)O2` (configuration not stated), for which the logD worked out at 0.36.

As for `Cc1ccc2c(c1)COP(=O)(OCC1C=CC(n3cc(C)c(=O)[nH]c3=O)O1)O2` (configuration not stated), the logD turned out to be 0.73.

`Cc1cc(C)c2c(c1)COP(=O)(OCC1C=CC(n3cc(C)c(=O)[nH]c3=O)O1)O2` (configuration not stated) showed a logD of 1.18.

Take `Cc1cccc2c1OP(=O)(OCC1C=CC(n3cc(C)c(=O)[nH]c3=O)O1)OC2` (configuration not stated): the logD is 0.71.

Assay in a further series: not given
Settings: not given
This is another data set of the same source.
As to `COc1ccc(NC(=O)c2cc(-c3sc(NC(=O)C(C)(C)C)nc3C)n(-c3ccc(Br)cc3)n2)cc1`, the logP was determined as 5.17.

In the case of `COc1ccc(NC(=O)c2cc(-c3sc(NC(=O)C(C)(C)C)nc3C)nn2Cc2ccc(Cl)cc2OC)cc1`, the logP was found to be 5.33.

Consider `COc1cc(Cl)ccc1Cn1nc(-c2sc(NC(=O)C(C)(C)C)nc2C)cc1C(=O)N1CCOCC1`, for which the logP is 4.1.

`Cc1nc(NC(=O)C(C)(C)C)sc1-c1cc(C(=O)NCc2ccccc2)n(Cc2ccccc2)n1` displayed a log partition coefficient (logP) of 4.82.

`C=CCn1nc(-c2sc(NC(=O)C(C)(C)C)nc2C)cc1C(=O)Nc1ccc(OC)cc1` yielded a logP of 4.55.

Assay in the next series: not given
Settings: not given
The source holds these as a separate data set.
In turn, `Cc1cccc2sc3nncn3c12` gave a logP of 2.07.

Take `CCCOC(=O)NCCCN(C)C`: the logP was 2.43.

For `CNC(=O)O/N=C/C(C)(C)SC`, the logP stood at 1.19.

Molecule `COP(=O)(NC(C)=O)SC` (configuration not stated) returned a logP of -0.46.

Assay in the next series: not given
Settings: not given
The source holds these as a separate data set.
As for `CCCCC(N)=O`, the logP stood at 0.37.

For the molecule `OCCCCCCO`, the logP is -0.02.

As to `OCCO`, the log partition coefficient (logP) is -1.21.

For `COC(N)=O`, the logP is -0.64.

The next series can be described thus: method code SF-AS, from DOI: 10.1002/jps.2600710122.
Settings: not given
With `O=C(Nc1n[nH]c(NC(=O)c2ccc([N+](=O)[O-])cc2)n1)c1ccc([N+](=O)[O-])cc1`, the logP stood at 0.55.

`O=C(Nc1n[nH]c(NC(=O)C(F)(F)F)n1)C(F)(F)F` had a logP of 0.62.

Consider `CCC(=O)Nc1n[nH]c(NC(=O)CC)n1`, for which the logP was -0.07.

For `CCCC(=O)Nc1n[nH]c(NC(=O)CCC)n1`, the lipophilicity (logP) turned out to be 0.79.

The nature of another series: method code SF-HPLC, from DOI: 10.1016/0045-6535(86)90532-1. The conditions noted are these: pH 6.5.
As to `CCNC(N)=S`, the logD was -0.21.

For the molecule `CN(C)C(=S)N(C)C`, the logD is 0.49.

The molecule `CCNC(=S)NCC` yielded a logD of 0.57.

In turn, `CN(C)C(N)=S` had a logD of -0.43.

A further series is described as follows: method code SF-AS, from DOI: 10.1021/jm00234a001, PMID: 1003419.
Settings: not given
Molecule `Oc1c(I)cc(I)c(O)c1I` displayed a logP of 1.68.

The nature of the next series: method code SF-AS, from DOI: 10.1021/jm00291a017, PMID: 5140011.
Settings: not given
`S=C1CCCCCCCN1` registered a logP of 1.44.

As for `S=C1CCCCCN1`, the logP stood at 0.75.

`S=C1CCCCCCN1` displayed a logP of 1.

On to `S=C1CCCCN1`, for which the logP was 0.13.

The nature of a further series: method code SF-AS, from DOI: 10.1007/s001289900158, PMID: 8661463.
Settings: not given
Regarding `CCN(CC)c1nc(NN)nc(NN)n1`, the logP is 1.22.

The molecule `NNc1nc(NN)nc(N2CCOCC2)n1` displayed a logP of 0.62.

Regarding `CCN(CC)c1nc(Cl)nc(Cl)n1`, the logP came out at 2.17.

Turning to `Clc1ccnc(Cl)n1`, the logP came out at 1.16.

Another series in a line: method code SF-AS, from DOI: 10.1002/chin.199416148, PMID: 8117185.
Settings: not given
`CC(C(=O)CCN(C)C)N1C(=O)C2CC=CCC2C1=O` (configuration not stated): the logP came to 0.77.

Regarding `CC(C(=O)CCN1CCCCC1)N1C(=O)C2CC=CCC2C1=O` (configuration not stated), the logP stood at 1.55.

`O=C(CCN1CCCCC1)CN1C(=O)C2CC=CCC2C1=O` (configuration not stated) came in with a logP of 1.44.

The molecule `O=C(CCN1CCCCC1)CN1C(=O)c2ccccc2C1=O` yielded a logP of 0.86.

`O=C(CCN1CCCCC1)CN1C(=O)CC(c2ccc(Cl)cc2)C1=O` (configuration not stated) came in with a logP of 2.23.

The next series in a line: method code SF-NMR, from DOI: 10.1002/jps.2600751016, PMID: 3795031.
Settings: not given
Consider `CC(CCO)CC(F)(F)F` (configuration not stated), for which the logP amounted to 1.61.

`CC(O)CC(F)(F)F` (configuration not stated) yielded a logP of 0.71.

The molecule `OCCCCCC(F)(F)F` yielded a logP of 1.64.

As for `OCCCCC(F)(F)F`, the lipophilicity (logP) was found to be 1.15.

The next series in a line: method code SF, from DOI: 10.1016/s0968-0896(00)00025-0, PMID: 10882003.
Settings: not given
Turning to `Cc1cccc(=O)[nH]1`, the lipophilicity (logP) is -0.04.

In turn, `CCOC(=O)c1cc(C#N)c(=O)[nH]c1C(F)(F)F` gave a logP of 2.08.

Molecule `O=c1cccc[nH]1` had a logP of -0.56.

Staying with this series, now noted: pH 7.4.
The molecule `O=c1cccc(Cl)[nH]1` returned a logD of 0.78.

The nature of another series: method code SF-HPLC, from DOI: 10.1007/s00216-006-0868-5, PMID: 17082876.
Settings: not given
In turn, `O=C1C(Cl)=C(Cl)C(=O)C(Cl)=C1Cl` came in with a logP of 2.19.

Molecule `Cc1ccc(S(=O)(=O)Cl)cc1` gave a logP of 3.25.

`C=Cc1ccccc1C=C` displayed a logP of 3.49.

Molecule `O=C(Nc1ccccc1)C(=O)Nc1ccccc1` returned a logP of 2.

A short description of the next series: method code SF-AS, from DOI: 10.1016/j.ejmech.2011.02.056, PMID: 21420207.
Settings: not given
In the case of `CCCCCCCCCCCCCC(=O)N[C@H]1C[C@H](O[C@H]2C[C@](O)(C(=O)CO)Cc3c(O)c4c(c(O)c32)C(=O)c2c(OC)cccc2C4=O)O[C@@H](C)[C@H]1O`, the log partition coefficient (logP) turned out to be 1.94.

With `CCSCCCCCCCCCCCC(=O)NC1CC(OC2CC(O)(C(=O)CO)Cc3c(O)c4c(c(O)c32)C(=O)c2c(OC)cccc2C4=O)OC(C)C1O` (configuration not stated), the logP was 2.

Take `CCCCCCCCCC(=O)N[C@H]1C[C@H](O[C@H]2C[C@](O)(C(=O)CO)Cc3c(O)c4c(c(O)c32)C(=O)c2c(OC)cccc2C4=O)O[C@@H](C)[C@H]1O`: the logP is 1.92.

The molecule `CCCCCCCCCCCCCCCCCCCC(=O)N[C@H]1C[C@H](O[C@H]2C[C@](O)(C(=O)CO)Cc3c(O)c4c(c(O)c32)C(=O)c2c(OC)cccc2C4=O)O[C@@H](C)[C@H]1O` had a logP of 2.31.

In turn, `CCCCCCCCCCCCCCCCCC(=O)N[C@H]1C[C@H](O[C@H]2C[C@](O)(C(=O)CO)Cc3c(O)c4c(c(O)c32)C(=O)c2c(OC)cccc2C4=O)O[C@@H](C)[C@H]1O` displayed a logP of 2.17.

Another series is described as follows: method code SF, from Yoshimoto, M. (1982). Quantitative structure-activity relationships and structure patterns of drugs. SankyoÌ„ KenkyuÌ„jo nenpoÌ„ (Annual report of Sankyo Research Laboratories), 34, 1-38.
Settings: not given
`CCCCCSCC(=O)NC1(OC)C(=O)N2C(C(=O)O)=C(COC(N)=O)CSC21` (configuration not stated) showed a logP of -1.31.

`COC1(NC(=O)CSc2nnc(C)s2)C(=O)N2C(C(=O)O)=C(COC(N)=O)CSC21` (configuration not stated) displayed a logP of -2.16.

On to `COC1(NC(=O)CSc2[nH]cnc3ncnc2-3)C(=O)N2C(C(=O)O)=C(COC(N)=O)CSC21` (configuration not stated), for which the logP is -1.99.

Molecule `CCCCSCC(=O)NC1(OC)C(=O)N2C(C(=O)O)=C(COC(N)=O)CSC21` (configuration not stated) registered a logP of -1.57.

For `CCCSCC(=O)NC1(OC)C(=O)N2C(C(=O)O)=C(COC(N)=O)CSC21` (configuration not stated), the logP was -1.76.
